Measurements as given in US20060211676A1, “Crystalline anhydrous cefdinir and crystalline cefdinir hydrates” (priority 2004, published 2006).

Assay: Dynamic Moisture Sorption/Desorption Gravimetric (DMSG) analysis
Type: physicochemical
Conditions: relative humidity from 50% to 90%
Method: Dynamic Moisture Sorption/Desorption Gravimetric (DMSG) analysis was performed for the cefdinir lower hydrates. A vacuum moisture balance (MB 300G, VTI Corporation) was used to study the moisture sorption and desoprtion. Samples were dried at 50° C. under vacuum to constant weight. Relative humidity was increased to 90% in 10% increments. If the sample weight remained unchanged (i.e. changed by less than about 3 mg/15 min), the moisture content was recorded. The balance was calibrated before the experiment and the accuracy of the relative humidity measurement was verified with polyvinylpyrrolidone K90. […] Sharp steps, for example with relative humidity changes from 40% to 50%, occur when the crystal undergoes a phase change (i.e. a crystalline structure change). […] Increases in the relative humidity from 10% to almost 40%, results in the formation of crystalline iso-structural hydrates. The cefdinir iso-structural hydrates varied but maintained the same crystalline structure and PXRD patterns (FIG. 6). An increase in the relative humidity from 40% to 50% caused a crystalline structure change, and further increase of relative humidity from 50% to 90% caused cefdinir trihemihydrate (having a water content of about 14%) to form. […] The weight changes are expressed by percentage of water content and by the calculated molar content of water.

C=CC1=C(C(=O)O)N2C(=O)[C@@H](NC(=O)/C(=N\O)c3csc(N)n3)[C@H]2SC1.C=CC1=C(C(=O)O)N2C(=O)[C@@H](NC(=O)/C(=N\O)c3csc(N)n3)[C@H]2SC1.O.O.O.O.O.O.O [cefdinir trihemihydrate, crystalline(6R-(6α,7β(Z)))-7-(((2-amino-1,3-thiazol-4-yl)(hydroxyimino)acetyl)amino)-3-ethenyl-8-oxo-5-thia-1-azabicyclo[4.2.0]oct-2-ene-2-carboxylic acid.3.5H2O]
water content: about 14%
